# Data as given in patent US8058243B2, “Method for treating a brain cancer with ifenprodil” (HSC Research and Development Limited Partnership, priority 2006, dated 2011).
# Counter-ions that a name gives are not always drawn. Like-named read-outs stand apart in the source and are kept apart here.
# Tested on: murine neural precursor cells (neurosphere cultures)
# Test: HTS of LOPAC library against secondary neurosphere cultures, MTT proliferation assay at 3 μM, day 7 (z score, P value)
# Assay type: cell-based, mouse
# [1] = LOPAC primary screen, neurosphere MTT proliferation, 3 μM, day 7
# [2] = yes/no: significantly inhibited neurosphere proliferation (P<0.01) in the primary screen
# [3] = primary LOPAC screen, 3 μM, MTT, neurosphere proliferation
# [4] = yes/no: significantly inhibited neurosphere proliferation in the primary screen
# [5] = yes/no: significantly inhibited neurosphere proliferation (P<0.01) in primary screen
# [6] = LOPAC library screen at 3 μM, secondary neurosphere cultures, MTT
# [7] = LOPAC screen, neurosphere MTT proliferation, 3 μM, day 7
# [8] = LOPAC library screen at 3 μM, MTT, secondary neurosphere cultures, screened in singlets
# [9] = yes/no: significantly inhibited neurosphere proliferation in primary screen
# [10] = LOPAC library screen, 3 μM, MTT, neurosphere cultures
# [11] = LOPAC library screen, 3 μM, MTT, secondary neurosphere cultures, day 7
# [12] = yes = significantly inhibited neurosphere proliferation (P<0.01) in the primary screen
compound,measurement,setting,value
CCCN(CCc1ccccc1)C1CCc2c(O)cccc2C1.Cl (racemic) [(±)-PPHT hydrochloride],Z score,[1],−1.915
same,Activity,[2],no
O=P1(N(CCCl)CCCl)NCCCO1 (centres unmarked) [Cyclophosphamide monohydrate],Activity,,no
same,Z Score,,−0.9758
same,Z score,,−0.976
CC1=C[C@@H]2c3cccc4[nH]cc(c34)C[C@H]2N(C)C1 [Agroclavine],Z Score,,−0.9109
same,Z score,[3],−0.911
same,Activity,[4],no
CCNC(=O)[C@H]1O[C@@H](n2cnc3c(N)nc(NCCc4ccc(CCC(=O)O)cc4)nc32)[C@H](O)[C@@H]1O [CGS-21680 hydrochloride],Z Score,"168 h, 3 µM",−1.225
same,Z score,"168 h, 3 µM",−1.225
same,Activity,[2],no
C[n+]1cc2c3c(ccc2c2ccc4cc5c(cc4c21)OCO5)OCO3 [Sanguinarine chloride],Z Score,,−10.01
same,Z score,[1],−10.008
same,Activity,[2],yes
CC(C)(Sc1ccc(CCN(CCCCC2CCCCC2)C(=O)NC2CCCCC2)cc1)C(=O)O [GW7647],Z Score,,−0.9923
same,Z score,[1],−0.992
same,Activity,[5],no
CC(C[N+](C)(C)C)OC(N)=O (centres unmarked) [Bethanechol chloride],Z Score,[6],−0.6493
same,Z score,[7],−0.649
same,Activity,[5],no
CP(=O)(O)C1=CCNCC1 [TPMPA],Z Score,,0.8742
same,Z score,[3],0.874
same,Activity,[4],no
C#C[C@]1(O)CC[C@H]2[C@@H]3CCC4=Cc5oncc5C[C@]4(C)[C@H]3CC[C@@]21C [Danazol],Z Score,[8],2.152
same,Z score,[7],2.152
same,Activity,[5],no
COc1cc(CC(C)N)c(OC)cc1I.Cl (racemic) [(±)-DOI hydrochloride],Z score,[7],−1.345
same,Activity,[5],no
CC(C)(C)c1o[nH]c(=O)c1CC(N)C(=O)O (centres unmarked) [ATPA],Activity,,no
same,Z Score,,0.2832
same,Z score,[3],0.283
Cn1cnc2c1c(=O)[nH]c(=O)n2C [Theobromine],Z Score,"168 h, 3 µM",−1.392
same,Z score,"168 h, 3 µM",−1.392
same,Activity,[4],no
S(−)-Timolol maleate,Z Score,[6],−0.7675
same,Z score,[1],−0.767
same,Activity,[9],no
Cn1c(=O)c2[nH]cnc2n(C)c1=O [Theophylline],Activity,,no
same,Z Score,[10],0.3699
same,Z score,[3],0.370
CC/C(=C(\c1ccccc1)c1ccc(OCCN(C)C)cc1)c1ccccc1 [Tamoxifen citrate],Activity,,yes
same,Z Score,[11],−10.64
same,Z score,[1],−10.643
O=C(O)c1cc(O)c2ccc(Cl)cc2n1 [7-Chlorokynurenic acid],Z Score,,1.241
same,Z score,[7],1.241
same,Activity,[5],no
C[N+]1(C)[C@@H]2CC[C@H]1C[C@@H](OC(=O)C(CO)c1ccccc1)C2 (some centres unmarked) [Atropine methyl bromide],Z Score,[6],−0.8716
same,Z score,[1],−0.872
same,Activity,[12],no
COc1cc(OC)cc(C(CNc2ncnc3c2ncn3[C@@H]2O[C@H](CO)[C@@H](O)[C@H]2O)c2ccccc2C)c1 (some centres unmarked) [DPMA],Z Score,,0.03628
same,Z score,[7],0.036
same,Activity,[5],no
NCCCCNS(=O)(=O)c1ccc2c(Cl)cccc2c1 [N-(4-Aminobutyl)-5-chloro-2-naphthalenesulfonamide],Z score,"168 h, 3 µM",−0.923
same,Activity,[9],no
Cl.NC1(C(=O)O)CCCCC1 [1-Amino-1-cyclohexanecarboxylic acid hydrochloride],Z Score,"168 h, 3 µM",−0.7495
same,Z score,"168 h, 3 µM",−0.749
same,Activity,[4],no
Cc1ccc(N(CC2=NCCN2)c2cccc(O)c2)cc1 [Phentolamine mesylate],Z Score,"168 h, 3 µM",−0.3191
same,Z score,"168 h, 3 µM",−0.319
same,Activity,[9],no
COc1ccc2[nH]cc(CCN)c2c1.Cl [O-Methylserotonin hydrochloride],Z Score,,−0.172
same,Z score,[1],−0.172
same,Activity,[12],no
"N/C(=N\C(=O)c1nc(Cl)c(N)nc1N)NCc1ccc(Cl)c(Cl)c1 [3′,4′-Dichlorobenzamil]",Z Score,,−2.581
same,Z score,[1],−2.581
same,Activity,[2],yes
NC(CO)(CO)CO.O=C(c1ccccc1)c1ccc2n1CCC2C(=O)O (centres unmarked) [Ketorolac tris salt],Z Score,[6],−0.7256
same,Z score,[1],−0.726
same,Activity,[5],no
CC(C)Oc1cccnc1N(C)C1CCN(Cc2ccccc2)CC1.O=C(O)/C=C\C(=O)O [U-101958 maleate],Z Score,,−2.065
same,Z score,[3],−2.065
same,Activity,[4],no
CCN(CC)CCOC(=O)c1ccc(N)cc1 [Procaine hydrochloride],Z Score,[10],0.5501
same,Z score,[1],0.550
same,Activity,[2],no
Br.CN1CCc2cc(O)c(O)cc2C(c2ccccc2)C1 (centres unmarked) [SKF 75670 hydrobromide],Z Score,,−0.1421
same,Z score,[1],−0.142
same,Activity,[9],no
Cc1c2ccncc2c(C)c2c1[nH]c1ccccc12 [Ellipiticine],Z score,[1],−8.321
same,Activity,[12],yes
CNc1ncnc2c1ncn2[C@H]1C[C@H](OP(=O)(O)O)[C@@H](COP(=O)(O)O)O1 [MRS 2179],Z Score,,−1.246
same,Z score,[1],−1.246
same,Activity,[12],no
"CN(N=O)c1ccc(O)c(O)c1 [Me-3,4-dephostatin]",Z Score,,0.5834
same,Z score,[1],0.583
same,Activity,[12],no
COc1ccc(CCN(C)CCCC(C#N)(c2ccc(OC)c(OC)c2)C(C)C)cc1OC.Cl (centres unmarked) [(B1)-Verapamil hydrochloride],Z Score,,1.008
N=C(N)NC(=O)c1nc(Cl)c(N)nc1N [Amiloride hydrochloride],Z Score,[6],−0.7992
same,Z score,[1],−0.799
same,Activity,[2],no
CCCCNc1ccc(C(=O)OCCN(C)C)cc1 [Tetracaine hydrochloride],Z Score,[10],−0.01953
same,Z score,[3],−0.020
same,Activity,[4],no
Nc1ccc(S(=O)(=O)Nc2ccnn2-c2ccccc2)cc1 [Sulfaphenazole],Z Score,[11],−1.362
same,Z score,[1],−1.362
same,Activity,[9],no
Br.Oc1cc2c(c(Cl)c1O)CCNCC2c1ccccc1 (racemic) [(±)-6-Chloro-PB hydrobromide],Z score,[1],−2.267
same,Activity,[9],no
CC(C)C1C2CCC(C2)C1N.Cl (centres unmarked) [AGN 192403 hydrochloride],Z Score,,0.7032
same,Z score,[3],0.703
same,Activity,[4],no
CC(=O)O[C@H]1C[C@@]2(C)[C@@H](C[C@@H](O)[C@H]3[C@@]4(C)CC[C@@H](O)[C@@H](C)[C@@H]4CC[C@@]32C)/C1=C(\CCC=C(C)C)C(=O)O [Fusidic acid sodium],Z Score,[8],2.045
same,Z score,[1],2.045
same,Activity,[5],no
CCN(CC)CC.Nc1ncnc2c1ncn2C1OC2COP(O)(=S)O[C@@H]2[C@@H]1O (some centres unmarked) [Rp-cAMPS triethylamine],Activity,,no
same,Z Score,,1.186
same,Z score,,1.186
Nc1nc2c(nc(Br)n2[C@@H]2O[C@@H]3COP(=O)([O-])O[C@H]3[C@H]2O)c(=O)[nH]1.[Na+] [8-Bromo-cGMP sodium],Z Score,,−1.005
same,Z score,[3],−1.005
same,Activity,[4],no
CCn1ccnc1CC1COc2ccccc2O1 (centres unmarked) [Imiloxan hydrochloride],Z Score,[6],−0.9879
same,Z score,[1],−0.988
same,Activity,[5],no
